Measured values: US8791106B2, “Fused ring pyridine compound” (Astellas Pharma Inc., priority 2010, dated 2014)

Key:
[1] = tested on: adjuvant-induced arthritis rat; experiment: Effect of inhibition of hind paw weight distribution in adjuvant-induced arthritis rat; format: in vivo; conditions: oral, female Lewis rats, day after adjuvant, Vehicle group 0%, Normal group 100%, read-out: Inhibition rate (%) of hind paw load difference
Experimental: For this test, female Lewis rats (7- to 8-weeks-old) were used. 50 μL of killed Mycobacterium tuberculosis H37 Ra (manufactured by DIFCO MICROBIOLOGY) suspended in liquid paraffin at a concentration of 10 mg/mL was subcutaneously administered to the right hind footpad. On the next day, the test substance was administered orally, and after some time, the load on the left and right hind paws was measured using an Incapacitance Tester (manufactured by Linton Instruments), thereby calculating a difference in the load between left and right. The load difference of a Vehicle-administered group was regarded as an inhibition rate of 0%, and the load difference of a Normal group was regarded as an inhibition rate of 100%, thereby allowing calculation of the inhibition rate of the test substance.
In the table, Ex represents an example number of a test compound described later, and values in the parenthesis indicates a dose.

human CB2 = target: T1, human CB2 (Homo sapiens, UniProt P34972); experiment: Test on inhibition of human CB2-mediated cyclic AMP (cAMP) production; format: cell-based; conditions: 30 nM test substance; forskolin 0.5 μM; human CB2-expressing CHO cells; 30 minutes at room temperature; read-out: Inh(%): inhibition rate of cAMP increase
T1 construct: expressed in transfected cells; host or cells: CHO cells
T1 sequence (P34972 whole entry): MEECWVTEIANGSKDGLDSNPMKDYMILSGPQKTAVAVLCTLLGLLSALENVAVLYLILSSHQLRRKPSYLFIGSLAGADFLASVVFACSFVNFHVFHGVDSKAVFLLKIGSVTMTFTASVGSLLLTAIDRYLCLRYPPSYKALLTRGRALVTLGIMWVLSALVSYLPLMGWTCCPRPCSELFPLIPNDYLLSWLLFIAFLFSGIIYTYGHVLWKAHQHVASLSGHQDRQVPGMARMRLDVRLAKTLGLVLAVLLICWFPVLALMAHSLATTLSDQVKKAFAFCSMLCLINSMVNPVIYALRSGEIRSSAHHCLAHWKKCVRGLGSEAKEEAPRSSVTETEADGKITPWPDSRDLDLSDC
Experimental: This test was performed using CHO cells caused to express human CB2 (“Molecular Pharmacology”, 1995, Vol. 48, pp 443-450).
A human CB2-expressing CHO cell (2.5×10^3/mL) suspension and an assay medium supplemented with a test substance and forskolin (final concentration of 0.5 μM) were mixed together in equal amounts, followed by incubation for 30 minutes at room temperature, and then a 0.6% Triton X-100 solution was added thereto, thereby obtaining a cell lysate. A cAMP concentration in the cell lysate was measured using a cAMP kit (manufactured by Cisbio International). The assay medium was obtained by supplementing α-MEM manufactured by Invitrogen with 0.02% CHAPS, 1 mM isobutylmethylxanthine, and 0.5 mg/mL bovine serum albumin. The cAMP concentration in a forskolin-free cell suspension was regarded as 0% of increase in cAMP, and the cAMP concentration in a forskolin-added cell suspension was regarded as a 100% increase in cAMP, thereby allowing calculation of the inhibition rate of intracellular cAMP increase in 30 nM test substance.
In the table, Ex represents the example number of a test compound described later, and Inh represents inhibition rate of cAMP increase.

| Structure (SMILES) | inhibition at 0.03 µM (human CB2) [%] | inhibition in vivo at 0.1 mg/kg [1] [%] | inhibition in vivo at 0.3 mg/kg [1] [%] |
| --- | --- | --- | --- |
| O=C(c1ncc(Nc2cccc(Cl)c2)c2c1CCCC2)N1CCS(=O)(=O)CC1 [Example 10] | 73 | 30 | – |
| O=C(c1cnc(N[C@@H]2C[C@H]3CC[C@@H]2C3)c2c1CCCC2)N1CCOCC1 [Example 11] | 77 | – | – |
| O=C(c1cnc(Nc2cccc(OC(F)(F)F)c2)c2c1CCCC2)N1CCOCC1 [Example 16] | 87 | 29 | – |
| O=C(c1cnc(Nc2cccc(Cl)c2)c2c1CCCC2)N1CCS(=O)(=O)CC1 [Example 30] | 82 | 17 | – |
| O=C(c1ncc(Nc2cccc(C(F)(F)F)c2)c2c1CCCC2)N1CCS(=O)(=O)CC1 [Example 36] | 82 | 49 | – |
| CC1(C)CCCC(Nc2ncc(C(=O)N3CCS(=O)(=O)CC3)c3c2CCCC3)C1 (stereo not shown) [Example 38] | 77 | – | – |
| O=C(c1cnc(Oc2cccc(C(F)(F)F)c2)c2c1CCCC2)N1CCS(=O)(=O)CC1 [Example 52] | 96 | – | – |
| O=C(c1ncc(Nc2ccc(F)c(Cl)c2)c2c1C1CCC2C1)N1CCS(=O)(=O)CC1 (stereo not shown) [Example 59] | 93 | – | – |
| O=C(c1ncc(Nc2cccc(Cl)c2)c2c1C1CCC2C1)N1CCS(=O)(=O)CC1 (stereo not shown) [Example 94-1] | 97 | – | – |
| O=C(c1ncc(Nc2cccc(Cl)c2)c2c1C1CCC2CC1)N1CCS(=O)(=O)CC1 [Example 98] | 96 | – | – |

Second part, led by results:

| inhibition at 0.03 µM (human CB2) [%] | Structure (SMILES) | inhibition in vivo at 0.1 mg/kg [1] [%] | inhibition in vivo at 0.3 mg/kg [1] [%] |
| --- | --- | --- | --- |
| 99 | O=C(c1cnc(Nc2cccc(Cl)c2)c2c1C1CCC2CC1)N1CCS(=O)(=O)CC1 [Example 101] | – | – |
| 103 | O=C(c1cnc(Nc2cccc(C(F)(F)F)c2)c2c1C1CCC2CC1)N1CCS(=O)(=O)CC1 [Example 112] | – | – |
| 100 | O=C(c1cnc(Nc2cccc(Cl)c2)c2c1C1CCC2C1)N1CCS(=O)(=O)CC1 (stereo not shown) [Example 117-2] | – | – |
| 91 | O=C(c1cnc(Nc2ccc(F)c(Cl)c2)c2c1C1CCC2C1)N1CCS(=O)(=O)CC1 (stereo not shown) [Example 119-2] | – | 49 |
| 105 | O=C(c1cnc(Nc2cccc(OC(F)(F)F)c2)c2c1C1CCC2C1)N1CCS(=O)(=O)CC1 (stereo not shown) [Example 120-2] | – | 34 |
| 100 | O=C(c1ncc(Nc2cccc(OC(F)(F)F)c2)c2c1C1CCC2CC1)N1CCS(=O)(=O)CC1 [Example 125] | – | – |
| 95 | O=C(c1ncc(Nc2ccc(F)c(C(F)(F)F)c2)c2c1C1CCC2CC1)N1CCS(=O)(=O)CC1 [Example 129] | – | – |
| 90 | O=C(c1cnc(Nc2ccc(F)c(C(F)(F)F)c2)c2c1C1CCC2C1)N1CCS(=O)(=O)CC1 (stereo not shown) [Example 133-2] | – | 39 |
| 97 | O=C(c1cnc(Nc2ccc(F)c(F)c2)c2c1C1CCC2CC1)N1CCS(=O)(=O)CC1 [Example 138] | – | 54 |
| 119 | Cc1cccc(Nc2cnc(C(=O)N3CCS(=O)(=O)CC3)c3c2C2CCC3CC2)c1F [Example 164] | – | – |
| 111 | Cc1ccc(F)c(Nc2cnc(C(=O)N3CCS(=O)(=O)CC3)c3c2C2CCC3CC2)c1 [Example 165] | – | – |
| 115 | Cc1ccc(Nc2cnc(C(=O)N3CCS(=O)(=O)CC3)c3c2C2CCC3CC2)cc1Cl [Example 167] | – | – |
| 100 | O=C(c1cnc(Nc2cc(F)cc(Cl)c2)c2c1C1CCC2CC1)N1CCS(=O)(=O)CC1 [Example 179] | – | – |
